One test relates to NOD2/HEKBlue cells. Description: hNOD2-HEKBlue L18-MDP-induced NF-κB reporter assay. The test is classed as cell-based, human. Particulars: for IC50: Homo sapiens, HEK-Blue, L18-MDP-induced NF-κB reporter, average ± SD of at least three titrations. On the procedure: For HEKBlue assay, cells were seeded into clear 96‐well plates at 7.5 × 10^3 cells/well and allowed to attach for 48 h. On the day of the experiment, media was changed to 100 μl of HEKBlue detection media (InvivoGen). Inhibitors were diluted and added in 0.5 μl DMSO 15 min prior to the addition of 1 ng/ml L18‐MDP (InvivoGen). After 8–9 h, absorbance at 620 nm was measured using Victor3V plate reader (Perkin Elmer, Waltham, MA). Values of media‐only wells were subtracted and %inhibition for each compound concentration relative to the DMSO/L18‐MDP‐treated controls was calculated. Inhibition values ± SD were fitted by non‐linear regression using Prism software (GraphPad Software, La Jolla, CA) to calculate IC50 values. For THP1Blue assay, 1 × 10^5 cells were seeded in 200 μl of RPMI media in 96‐well plates and treated with inhibitors in 0.5 μl DMSO for 15 min prior to the addition of 10 μg/ml MDP, 10 ng/ml Pam3CSK4, 10 ng/ml E. coli LPS, or 1 × 10^7 cells/ml heat‐killed L. monocytogenes (InvivoGen) for 24 h. After induction, 20 μl of media was mixed with 180 μl of QUANTI‐Blue reagent (InvivoGen) and incubated at 37°C for 3–4 h, followed by absorbance measurement at 620 nm. IC50 values were calculated as described for HEKBlue assay.
Cayman Chemical Company, Ann Arbor, MI), GSK583 (#HY-100339, MedChem Express, South Brunswick, NJ), WEHI-345 (MedKoo Biosciences, Morrisville, NC), Compound A (CpA, a kind gift from TetraLogic Pharmaceuticals, Malvern, PA). Generation of the CSLP compound series is described in Suebsuwong et al. 2018 (manuscript in preparation). hNOD2-HEKBlue and THP1Blue assays
For HEKBlue assay, cells were seeded into clear 96 well plates at 7.5x10^3 cells/well and allowed to attach for 48 h. On the day of the experiment, media was changed to 100 μl of HEKBlue detection media (InvivoGen). Inhibitors were diluted and added in 0.5 μl DMSO 15 min prior to the addition of 1 ng/ml L18-MDP (InvivoGen). After 8-9 h, absorbance at 620 nm was measured using Victor3V plate reader (Perkin Elmer, Waltham, MA). Values of media-only wells were subtracted and %inhibition for each compound concentration relative to the DMSO/L18-MDP-treated controls were calculated.
Inhibition values + StDev were fitted by non-linear regression using Prism software (GraphPad Software, La Jolla, CA) to calculate IC50 values. For THP1Blue assay, 1x10^5 cells were seeded in 200 μl of RPMI media in 96 well plates and treated with inhibitors in 0.5 μl DMSO 15 min prior to the addition of 10 µg/ml MDP, 10 ng/ml Pam3CSK4, 10 ng/ml E. coli LPS or 1x10^7 cells/ml heat-killed L. monocytogenes (InvivoGen) for 24 h. After induction, 20 μl of media was mixed with 180 μl of QUANTI-Blue reagent (InvivoGen) and incubated at 37 °C for 3-4 h, followed by absorbance measurement at 620 nm. IC50 values were calculated as described for HEKBlue assay. […]
For orientation: A reporter such as luciferase makes a cellular process visible.

In the next test the test system is RAW264.7 cells. Nature of the test: TNF ELISA, MDP-stimulated RAW264.7 cells. The test is classed as cell-based. Particulars: Mus musculus, MDP 10 μg/ml, 24 h, read-out: RAW264.7 TNF release inhibition Est. IC50. On the procedure:
Figure 4 Cellular and in vivo characterization of novel RIPK2 inhibitors on inflammatory signaling • A, B ELISA measurement of TNF release from RAW264.7 cells treated with MDP (10 μg/ml, 24 h) and CSLP compounds or RIPK2 inhibitor WEHI‐345 as indicated. […] After 4 h, blood was collected by cardiac puncture and circulating levels of TNF were analyzed by ELISA. Data information: Data represent the mean ± SEM of three independent experiments. **P < 0.01, n.s., not significant. Two‐tailed unpaired Student's t‐test was used to determine statistical significance. See also Fig EV3. TEXT PRINTED IN THE PICTURE: (B) CSLP37: RAW264.7 TNF release inhibition Est. IC50 (nM): 12.6; RAW264.7 TNF release inhibition St. Err.: ±1.7 | (B) CSLP43: RAW264.7 TNF release inhibition Est. IC50 (nM): 1.2; RAW264.7 TNF release inhibition St. Err.: ±0.2 | (B) CSLP48: RAW264.7 TNF release inhibition Est. IC50 (nM): NI; RAW264.7 TNF release inhibition St. Err.: ±0.2 | (B) CSLP55: RAW264.7 TNF release inhibition Est. IC50 (nM): 143.0; RAW264.7 TNF release inhibition St. Err.: ±27.1 | (B) WEHI-345: RAW264.7 TNF release inhibition Est.
Cayman Chemical Company, Ann Arbor, MI), GSK583 (#HY-100339, MedChem Express, South Brunswick, NJ), WEHI-345 (MedKoo Biosciences, Morrisville, NC), Compound A (CpA, a kind gift from TetraLogic Pharmaceuticals, Malvern, PA). Generation of the CSLP compound series is described in Suebsuwong et al. 2018 (manuscript in preparation). […]
RAW264.7 cells were seeded into 12 well plates at a density of 1.5x10^5 cells/well in 1 ml of media.
Inhibitors were diluted and added in 1 μl DMSO 15 min prior to the addition of 10 μg/ml MDP or 10 ng/ml E. coli LPS for 24 h. For TNF measurements, 100 μl of undiluted media (MDP) or 5-fold diluted media was analyzed using Duo-Set anti-mouse TNF ELISA kit (R&D Systems, Minneapolis, MN).
Values of media-only wells were subtracted and %inhibition for each compound concentration relative to the DMSO/MDP (or LPS)-treated controls were calculated. Inhibition values + StDev were fitted by non-linear regression using Prism software (GraphPad) to calculate IC50 values. […]
In general terms: ELISA stands for enzyme-linked immunosorbent assay.

Broadly, the IC50 is the point on the concentration scale where inhibition reaches its midpoint. Consider `CCCS(=O)(=O)Nc1cc(-c2cc(-c3ccc(N4CCNCC4)cc3)cnc2N)cc(F)c1OC` [CSLP37], for which the IC50 with NOD2/HEKBlue cells was 26.3 ± 3.7 nM; in the test with RAW264.7 cells it was 12.6 nM.

With `CCCS(=O)(=O)Nc1cc(-c2cc(-c3ccc(N4CCNCC4)cc3)cnc2N)cc(OC)c1OC` [CSLP43], the figures for the IC50 in the test with NOD2/HEKBlue cells and with RAW264.7 cells were 1.3 ± 0.4 nM and 1.2 nM, respectively.

Consider `CCCS(=O)(=O)Nc1cc(-c2cc(-c3ccc(N4CCNCC4)cc3)cnc2N)ccc1O` [CSLP48], for which the IC50 is above 5000 nM in the test with NOD2/HEKBlue cells and above 1000 nM with RAW264.7 cells.

Regarding `COc1cc(-c2cc(-c3ccc(N4CCNCC4)cc3)cnc2N)cc(F)c1OC` [CSLP55], the values for the IC50 with NOD2/HEKBlue cells and in the test with RAW264.7 cells were 595 ± 69.6 nM and 143 nM, respectively.

Regarding `Cc1ccc(-c2nn(C(C)(C)CNC(=O)c3ccncc3)c3ncnc(N)c23)cc1` [WEHI‐345, reference compound], the IC50 with NOD2/HEKBlue cells is 3370 nM; in the test with RAW264.7 cells, 123 nM. The “fold lower cellular potency than against RIPK2 kinase in vitro” value with NOD2/HEKBlue cells (Table 1, Fig 4A) was above 10 fold.

The record behind these values is article PMC6120666 (The EMBO Journal, 2018).
